Reference: patent publication US20090075926A1, “METHOD FOR IDENTIFYING AND MANIPULATING CELLS” (priority 2006, published 2009)

Key:
[1] = tested on: ERK2 phosphorylation (MAP kinase pathway) via PSMGFR region of MUC1; assay: western blot of ERK2 phosphorylation upon MUC1* dimerization and small molecule competition; type: cell-based; conditions: competitor small molecule present with anti-PSMGFR
Text: FIG. 6 is a western blot of a competition experiment in which small molecules that bind to the PSMGFR region of MUC1 compete with anti-PSMGFR for binding to the site. […] The chemical formula for the competitor compound MN 9 referred to in this figure is
The western blot probe antibody is phospho-ERK2. FIG. 6 is a western blot of a competition experiment in which small molecules that bind to the PSMGFR region of MUC1 compete with anti-PSMGFR for binding to the site.

[2] = tested on: H9 human embryonic stem cells; assay: human embryonic stem cell growth / live-dead assay on matrigel; type: cell-based; conditions: for live stem cells when free peptide is added to monovalent anti-MUC1*: monovalent anti-MUC1* plus free MUC1* peptide vs no peptide
Experimental: The details are that H9 low passage number hESCs were grown over matrigel for 7 days. To one set of wells was added bivalent anti-PSMGFR; to a second set was added the monovalent anti-PSMGFR; and to a third set buffer was added as a control. The results were that the addition of monovalent anti-PSMGFR caused stem cells to die within 8 hours. Cells immediately rounded up and within hours floated to the top of the media. […] Colonies were larger and in general had less differentiated cells.
Based on the findings that MUC1* mediates growth in cancer cells, experiments were devised to show whether or not stem cell growth could be manipulated by altering the dimerization state of MUC1*. A set number of human embryonic stem cells, H9p55, were plated onto matrigel. Cells were treated with either: 1) the bivalent anti-MUC1* antibody (rabbit polyclonal antibody raised the PSMGFR sequence), which dimerizes the MUC1* portion of the receptor; 2) the monovalent form of this same antibody, which binds to a single MUC1* receptor and prevents dimerization; or 3) nothing added as a control. The most striking result was that nearly all the cells, to which the monovalent anti-MUC1* antibody was added, died within 8 hours of the treatment, see FIGS. 25 and 26. […] A complete reversal of the monovalent antibody induced cell death was not expected since the free peptide could also compete with the cell surface MUC1* receptor for binding to the activating ligand. […] Therefore, the experiment was repeated but the analysis was done in a manner that resultant cell numbers could be quantitated.
A given number of cells H9p55 were added to each well. Again, the cells were treated with either bivalent anti-MUC1*, monovalent anti-MUC1* or no antibody as a control and then counted on a cell counting instrument. The graph of FIG. 32 summarizes the results. Again, treatment with the monovalent anti-MUC1* antibody caused cell death within 8 hours. […] The graph of FIG. 33 gives the details of this experiment. […]

[3] = tested on: hematopoietic stem cells (CD34++CD38−); conditions: recombinant protein added; cited from earlier work
HEL cells = conditions: recombinant human protein as GST fusion; cited from earlier work
[4] = tested on: hematopoietic progenitor cells (CD34+CD38+); conditions: recombinant protein added; cited from earlier work
[5] = tested on: MUC1*-positive cancer cells; assay: growth of MUC1*-positive cancer cells with NM23; type: cell-based
PSMGFR (MUC1*) peptide = biological target: T1, PSMGFR (MUC1*) peptide (Homo sapiens, UniProt P15941); assay: immunoprecipitation with histidine-tagged PSMGFR (MUC1*) peptide and western blot with anti-NM23; type: binding; conditions: T47D cancer cell extracts
T1 sequence (P15941 1110-1154 limits assumed): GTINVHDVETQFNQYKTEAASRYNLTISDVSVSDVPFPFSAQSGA
Experimental: NM23 is the ligand that dimerizes and activates the MUC1* growth factor receptor. T47D cancer cell extracts were immunoprecipitated with magnetic beads that were pre-bound with histidine-tagged PSMGFR (MUC1*) peptide. The captured MUC1* binding species were then separated by SDS-PAGE. A western blot was then performed by probing the gel with an antibody that recognized NM23 H1.

shed MUC1 = conditions: breast cancer patients; cited from earlier work

With O=C(c1ccc2ccccc2c1)N1CCc2c([nH]c3ccccc23)C1c1ccc(C(F)(F)F)cc1 (stereo not drawn) [Compound MN 9] the “ERK2 phosphorylation in competition with anti-PSMGFR” value [1] was “ERK2 phosphorylation is inhibited”.

In the case of “MUC1* peptide: free peptide of the MUC1* (PSMGFR) extracellular sequence, competes with cell surface MUC1* (GTINVHDVETQFNQYKTEAASRYNLTISDVSVSDVPFPFSAQSGA; Fragment of MUC1 Growth Factor Receptor)”, the “stem cell count on addition of MUC1* peptide” value ([2]; bFGF added, with or without bivalent anti-MUC1*) is reported as “drop in the cell count”, the “live stem cells when free peptide is added to monovalent anti-MUC1*” value [2] is reported as “more live cells” and the “live stem cells when free peptide is added to monovalent anti-MUC1*” value ([2]; listed as MUC1* free peptide) is reported as “increase in the number of live cells”.

For NM23-H1: recombinant NM23-H1 protein, the “growth of hematopoietic stem cells” value [3] is given as “did not induce growth”, the “erythroid differentiation of HEL cells by TGF-β1” value (HEL cells) is given as “block erythroid differentiation” and the “differentiation into granulocyte, macrophage, or granulocyte-macrophage colonies” value (from here on “differentiation into granulocyte”) [4] is given as “reduced the differentiation”.

With “NM23: natural ligand that dimerizes and activates the MUC1* growth factor receptor” the “growth of MUC1*-positive cancer cells” value [5] was “stimulate the growth” and the “binding to MUC1* peptide (immunoprecipitated species reacts with anti-NM23)” value (PSMGFR (MUC1*) peptide) was “ligand to MUC1”.

B1: NM23-H3: recombinant NM23-H3 protein (protein, UniProt Q13232 1-169, looked up)
Nucleoside diphosphate kinase …: MICLVLTIFANLFPAACTGAHERTFLAVKPDGVQRRLVGEIVRRFERKGFKLVALKLVQASEELLREHYAELRERPFYGRLVKYMASGPVVAMVWQGLDVVRTSRALIGATNPADAPPGTIRGDFCIEVGKNLIHGSDSVESARREIALWFRADELLCWEDSAGHWLYE
For B1, the “growth of hematopoietic stem cells” value [3] is listed as “did not induce growth” and the “differentiation into granulocyte” value [4] is listed as “reduced the differentiation”.

B2: NM23-H2: recombinant NM23-H2 protein (protein, UniProt P22392 1-152, looked up)
Nucleoside diphosphate kinase …: MANLERTFIAIKPDGVQRGLVGEIIKRFEQKGFRLVAMKFLRASEEHLKQHYIDLKDRPFFPGLVKYMNSGPVVAMVWEGLNVVKTGRVMLGETNPADSKPGTIRGDFCIQVGRNIIHGSDSVKSAEKEISLWFKPEELVDYKSCAHDWVYE
In the case of B2, the “growth of hematopoietic stem cells” value [3] is listed as “did not induce growth”, the “erythroid differentiation of HEL cells by TGF-β1” value (HEL cells) is listed as “block erythroid differentiation” and the “differentiation into granulocyte” value [4] is listed as “reduced the differentiation”.

B3: G-CSF: granulocyte colony stimulating factor (protein, UniProt P09919 31-207, looked up)
Granulocyte …: TPLGPASSLPQSFLLKCLEQVRKIQGDGAALQEKLVSECATYKLCHPEELVLLGHSLGIPWAPLSSCPSQALQLAGCLSQLHSGLFLYQGLLQALEGISPELGPTLDTLQLDVADFATTIWQQMEELGMAPALQPTQGAMPAFASAFQRRAGGVLVASHLQSFLEVSYRVLRHLAQP
For B3, the “serum levels of shed MUC1” value (shed MUC1) is given as “greatly increased”.
